Test results: ChEMBL document CHEMBL6109155, “Discovery of Phenylacylpiperidine as Novel sEH Inhibitors through Scaffold Hopping of Natural Stilbene” (J Med Chem, 2025)
Active and inactive are the calls of the source. No cut-off for these calls is given here.

Tests used:
Mus musculus [1] = test: Anti-inflammatory activity in BALB/c mouse model of carrageenan-induced paw edema assessed as inhibition of paw swelling at 10 mg/kg, po measured up to 6 hrs relative to control; assay type: functional
Mus musculus [2] = test: Anti-inflammatory activity in BALB/c mouse model of carrageenan-induced paw edema assessed as decrease in plasma 14,15-DHET levels at 10 mg/kg, po measured after 6 hrs; assay type: functional, organism-based
Mus musculus [3] = test: Anti-inflammatory activity in BALB/c mouse model of carrageenan-induced paw edema assessed as decrease in plasma 8,9-DHET levels at 10 mg/kg, po measured after 6 hrs; assay type: functional, organism-based
Mus musculus [4] = test: Anti-inflammatory activity in BALB/c mouse model of carrageenan-induced paw edema assessed as decrease in plasma 11,12-DHET levels at 10 mg/kg, po measured after 6 hrs; assay type: functional, organism-based
Mus musculus [5] = test: Anti-inflammatory activity in BALB/c mouse model of carrageenan-induced paw edema assessed as increase in ratio of 14,15-EET to DHET plasma levels at 10 mg/kg, po measured after 6 hrs; assay type: functional, organism-based
Mus musculus [6] = test: Anti-inflammatory activity in BALB/c mouse model of carrageenan-induced paw edema assessed as increase in ratio of 11,12-EET to DHET plasma levels at 10 mg/kg, po measured after 6 hrs; assay type: functional, organism-based
Mus musculus [7] = test: Anti-inflammatory activity in BALB/c mouse model of carrageenan-induced paw edema assessed as increase in ratio of 8,9-EET to DHET plasma levels at 10 mg/kg, po measured after 6 hrs; assay type: functional, organism-based
Mus musculus [8] = test: Effect on liver sEH enzyme activity in BALB/c mouse model of carrageenan-induced paw edema at 1 to 10 mg/kg, po measured after 6 hrs; assay type: functional, organism-based; conditions: dose 1-10 mg/kg
Mus musculus [9] = test: Effect on liver sEH protein content in BALB/c mouse model of carrageenan-induced paw edema at 1 to 10 mg/kg, po measured after 6 hrs; assay type: functional, organism-based; conditions: dose 1-10 mg/kg
RAW264.7 [10] = test: Anti-inflammatory activity in LPS-indeced mouse RAW264.7 cells assessed as reduction in TNF-alpha level at 10 uM preincubated for 1 hr followed by LPS addition measured after 24 hrs by ELISA; assay type: functional, cell-based; conditions: time 25.0 hrs
RAW264.7 [11] = test: Anti-inflammatory activity in LPS-indeced mouse RAW264.7 cells assessed as reduction in IL-1beta level at 10 uM preincubated for 1 hr followed by LPS addition measured after 24 hrs by ELISA; assay type: functional, cell-based
RAW264.7 [12] = test: Anti-inflammatory activity in LPS-indeced mouse RAW264.7 cells assessed as reduction in IL-6 level at 10 uM preincubated for 1 hr followed by LPS addition measured after 24 hrs by ELISA; assay type: functional, cell-based
RAW264.7 [13] = test: Effect on IL-10 level in LPS-indeced mouse RAW264.7 cells at 10 uM preincubated for 1 hr followed by LPS addition measured after 24 hrs by ELISA; assay type: functional, cell-based
RAW264.7 [14] = test: Effect on IL-6 level in LPS-indeced mouse RAW264.7 cells at 10 uM preincubated for 1 hr followed by LPS addition measured after 24 hrs by ELISA; assay type: functional, cell-based
RAW264.7 [15] = test: Upregulation of IL-10 level in LPS-indeced mouse RAW264.7 cells at 10 uM preincubated for 1 hr followed by LPS addition measured after 24 hrs by ELISA; assay type: functional, cell-based
Mus musculus [16] = test: Anti-inflammatory activity in BALB/c mouse model of carrageenan-induced paw edema assessed as inhibition of paw swelling at 20 mg/kg, po measured for 0.5 hrs relative to control; assay type: functional; conditions: Mus musculus, BALB/c
Mus musculus [17] = test: Anti-inflammatory activity in BALB/c mouse model of carrageenan-induced paw edema assessed as inhibition of paw swelling at 20 mg/kg, po measured for 4 hrs relative to control; assay type: functional
[18] = target: T1, Bifunctional epoxide hydrolase 2 (Mus musculus, UniProt P34914); test: biochemical
T1 sequence (P34914 whole entry): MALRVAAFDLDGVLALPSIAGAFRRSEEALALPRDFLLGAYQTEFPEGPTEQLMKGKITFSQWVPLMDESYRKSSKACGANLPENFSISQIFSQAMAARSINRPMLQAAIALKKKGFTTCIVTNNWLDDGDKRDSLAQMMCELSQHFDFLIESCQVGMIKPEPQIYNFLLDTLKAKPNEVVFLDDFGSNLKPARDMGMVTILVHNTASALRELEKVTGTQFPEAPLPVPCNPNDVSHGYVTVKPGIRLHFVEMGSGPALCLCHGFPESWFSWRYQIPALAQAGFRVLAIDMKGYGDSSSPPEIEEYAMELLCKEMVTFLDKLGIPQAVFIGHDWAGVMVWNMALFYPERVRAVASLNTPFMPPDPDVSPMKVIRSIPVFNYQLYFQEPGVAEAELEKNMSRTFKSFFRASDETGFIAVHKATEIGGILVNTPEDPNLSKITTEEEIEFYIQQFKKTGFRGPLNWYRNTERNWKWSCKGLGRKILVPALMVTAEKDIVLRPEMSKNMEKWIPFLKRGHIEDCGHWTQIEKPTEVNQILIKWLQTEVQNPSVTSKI
Description: Inhibition of C57BL/6J mouse brain sEH using 14,15-EET as substrate preincubated for 15 mins followed by substrate addition by HPLC-MS analysis

| SMILES | Imax (Mus musculus [1]) [%] | Activity (Mus musculus [2]) | Activity (Mus musculus [3]) | Activity (Mus musculus [4]) | Activity (Mus musculus [5]) | Activity (Mus musculus [6]) | Activity (Mus musculus [7]) | Activity (Mus musculus [8]) | Activity (Mus musculus [9]) | Activity (RAW264.7 [10]) | Activity (RAW264.7 [11]) | Activity (RAW264.7 [12]) | Activity (RAW264.7 [13]) | Activity (RAW264.7 [14]) | Activity (RAW264.7 [15]) | inhibition in vivo at 20 mg/kg (Mus musculus [16]) [%] | inhibition in vivo at 20 mg/kg (Mus musculus [17]) [%] | IC50 [18] [nM] |
| --- | --- | --- | --- | --- | --- | --- | --- | --- | --- | --- | --- | --- | --- | --- | --- | --- | --- | --- |
| CC[C@H](C)C(=O)N1CCC(NC(=O)Nc2ccc(OC(F)(F)F)c(F)c2)CC1 | 30.6 | Active | Active | Active | Active | Active | Active | Active | Active | Active | Active | Active | No effect | No effect | Active |  |  |  |
| COc1cc(OC)c2c(c1)C1Cc3ccc(NC(=O)NCc4ccc(OC(F)(F)F)cc4)cc3CN1CC2 (stereo not drawn) |  |  |  |  |  |  |  |  |  |  |  |  |  |  |  | 24.7 | 38.5 | 1.44 |
